Reference: patent US7078209B2, “CAK inhibitors and uses thereof” (Vertex Pharmaceuticals Incorporated, priority 2001, dated 2006)

Molecular target: CDK activating kinase (CAK) from Candida albicans (Candida albicans, UniProt A0A1D8PH53)
Assay: Candida albicans CAK kinase assay: phosphorylation of human CDK2 with 33P labeled ATP
Type: biochemical
Details: 2 nM CAK, 0.3 μM CDK2·FSBA, 10 μM ATP, room temperature, pH 7.5
Description: Activity of CDK activating kinase (CAK) from Candida albicans was measured by following the phosphorylation of human cyclin dependent kinase 2 (CDK 2) with ^33P labeled ATP. Reactions were carried out at room temperature in 100 mM HEPES, pH 7.5, 1 mM MgCl2, 100 mM NaCl and 1 mM DTT. Final concentrations of CAK and CDK2 were 2 nM and 300 nM, respectively. The CDK-2 substrate was inactivated with 5′ fluorosulfonylbenzoyladenosine (FSBA) to oblate its intrinsic ATPase activity. Test compounds in DMSO (final concentrations 30 μM, 1.5% DMSO) were first incubated with CAK and CDK2 for 40 minutes, then the reaction initiated by addition of ^33P ATP (final concentration 10 μM, specific activity=[…], NEN, Boston, Mass.). The reaction was allowed to proceed for 40 minutes and quenched by addition of 10% TCA containing 250 mM ATP. The quenched reaction was harvested onto GF/C glass fiber filter plates (Packard, Meriden, Conn.) using a Tomtec 9600 cell harvester (Tomtec, Hamden, Conn.), washed with 5% TCA and water. The plates were then treated with 50 μl of scintillation fluid and counted using a Packard top count (Packard, Meriden, Conn.). Ki values for inhibitory compounds were determined using the same assay at a series of compound concentrations.
• 100 mM HEPES, pH 7.5 • 1 mM MgCl2 • 100 mM NaCl • 1 mM DTT • 2 nM CAK • 0.3 μM CDK2·FSBA • 1.5% DMSO (compounds are dissolved in DMSO) • 10 μM ATP (specific activity·1.25e9 μCi/mol ATP)

CDK activating kinase (CAK) from Candida albicans, sequence (A0A1D8PH53 entry or part of it): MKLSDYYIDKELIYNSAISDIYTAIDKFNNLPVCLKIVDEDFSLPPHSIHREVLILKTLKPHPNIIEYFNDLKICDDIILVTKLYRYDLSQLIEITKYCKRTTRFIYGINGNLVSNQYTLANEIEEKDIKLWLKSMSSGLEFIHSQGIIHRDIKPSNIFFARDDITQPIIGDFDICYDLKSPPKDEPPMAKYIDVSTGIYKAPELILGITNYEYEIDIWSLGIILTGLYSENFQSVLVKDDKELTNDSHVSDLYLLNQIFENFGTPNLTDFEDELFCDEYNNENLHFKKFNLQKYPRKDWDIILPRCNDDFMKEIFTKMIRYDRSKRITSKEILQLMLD

SMILES | Ki
N#Cc1c(N)c(C(=O)c2ccc(Cl)c(Cl)c2)n2ccccc12 [Compound 5] | 640 nM
N#Cc1c(N)c(C(=O)c2ccc(F)cc2)n2ccccc12 [Compound 6] | 880 nM
COc1ccccc1C(=O)c1c(N)c(C#N)c2ccccn12 [Compound 7] | 940 nM
N#Cc1c(N)c(C(=O)c2ccc(F)c(F)c2)n2ccccc12 [Compound 8] | 1000 nM
N#Cc1c(N)c(C(=O)c2ccc(Cl)cc2)n2ccccc12 [Compound 9] | 1300 nM
N#Cc1c(N)c(C(=O)c2ccc(OC(F)(F)F)cc2)n2ccccc12 [Compound 10] | 1500 nM
N#Cc1c(N)c(C(=O)c2ccc(Br)cc2)n2ccccc12 [Compound 11] | 1900 nM
COc1ccc(C(=O)c2c(N)c(C#N)c3ccccn23)cc1 [Compound 12] | 2400 nM
CC(=O)Nc1c(C#N)c2ccccn2c1C(=O)c1ccc(F)cc1 [Compound 13] | > 30000 nM

These reach a lower Ki. Values come first.

Ki | SMILES
60 nM | N#Cc1c(N)c(C(=O)c2cccc(I)c2)n2ccccc12 [Compound 1]
210 nM | COc1cccc(C(=O)c2c(N)c(C#N)c3ccccn23)c1 [Compound 2]
290 nM | N#Cc1c(N)c(C(=O)c2cccc(Cl)c2)n2ccccc12 [Compound 3]
540 nM | N#Cc1c(N)c(C(=O)c2ccc3ccccc3c2)n2ccccc12 [Compound 4]
